In ChEMBL document CHEMBL5154823, “Amphiphilic cyclic peptide [W4KR5]-Antibiotics combinations as broad-spectrum antimicrobial agents” (Eur J Med Chem, 2022):
Activity calls are given as the source filed them. The calls are words filed in the database; no cut-off is given here. Where a SMILES comes first, the peptide text is derived from it. Bridges are numbered along the chain shown (N, C = ends). [ ]: non-standard residue; d: D form. The star is where a group is joined. X1 = C[C@H](O)[C@H]1C(=O)N2C(C(=O)*)=C(S[C@@H]3CN[C@H](C(=O)N(C)C)C3)[C@@H](C)[C@H]12; X2 = CC[C@H](C)CCCCC(=O)*; Dab = NCC[C@H](N)C(=O)O

Assays:
Klebsiella pneumoniae [1] = assay: Antibacterial activity against imipenem resistant Klebsiella pneumoniae ATCC BAA 1705 assessed as reduction in microbial growth incubated for 24 hrs by microbroth dilution method; type: functional
Escherichia coli [2] = assay: Antibacterial activity against Escherichia coli ATCC 25922 assessed as reduction in microbial growth incubated for 24 hrs by microbroth dilution method; type: functional
Pseudomonas aeruginosa [3] = assay: Antibacterial activity against Pseudomonas aeruginosa ATCC 27883 assessed as reduction in microbial growth incubated for 24 hrs by microbroth dilution method; type: functional
Staphylococcus aureus [4] = assay: Antibacterial activity against Methicillin resistant Staphylococcus aureus ATCC BAA -1556 assessed as reduction in microbial growth incubated for 24 hrs by microbroth dilution method; type: functional
HepaRG [5] = assay: Cytotoxicity against human HepaRG cells assessed as assessed as reduction in cell viability at 50 to 150 ug/ml incubated for 24 hrs by microplate reader analysis relative to control; type: toxicity, cell-based; settings: at 50 to 150 µg/mL, dose 50-150 µg/ml
Escherichia coli [6] = assay: Antibacterial activity against carbapenem and NDM-1 positive resistant Escherichia coli ATCC BAA 2452 assessed as reduction in microbial growth incubated for 24 hrs by microbroth dilution method; type: functional
Klebsiella pneumoniae [7] = assay: Antibacterial activity against Klebsiella pneumoniae ATCC 13883 assessed as reduction in microbial growth incubated for 24 hrs by microbroth dilution method; type: functional
Cell membrane [8] = assay: Induction of membrane disruption in Staphylococcus aureus ATCC BAA -1556 assessed as increase in PI positive cells at 4 times of MIC incubated for 2 hrs by Propidium iodide staining based FACS cytometry analysis relative to control; type: subcellular
HEK293 [9] = assay: Cytotoxicity against HEK293 cells assessed as effect on cell viability at 10 ug/ml incubated for 24 hrs by microplate reader analysis; type: toxicity, cell-based; settings: human, hek293, 24 h, dose 10 µg/ml
HepaRG [10] = assay: Cytotoxicity against human HepaRG cells assessed as assessed as reduction in cell viability at 10 ug/ml incubated for 24 hrs by microplate reader analysis; type: toxicity, cell-based; settings: dose 10 µg/ml
[11] = Cytotoxicity against HEK293 cells assessed as effect on cell viability at 10 to 25 ug/ml incubated for 24 hrs by microplate reader analysis relative to control; type: toxicity, cell-based; settings: human, at 10 to 25 µg/mL, dose 10-25 µg/ml, read-out: Activity
[12] = Hemolytic activity in human Red blood cell incubated for 2 hrs by spectrophotometric analysis; type: toxicity, cell-based, Erythrocyte; settings: red blood cells (erythrocytes)
Pseudomonas aeruginosa [13] = assay: Antibacterial activity against carbapenem resistant Pseudomonas aeruginosa ATCC BAA 1744 assessed as reduction in microbial growth incubated for 24 hrs by microbroth dilution method; type: functional
Cell membrane [14] = assay: Induction of membrane disruption in Pseudomonas aeruginosa ATCC BAA 1744 assessed as increase in PI positive cells at 4 times of MIC incubated for 2 hrs by Propidium iodide staining based FACS cytometry analysis relative to control; type: subcellular
Staphylococcus aureus [15] = assay: Antibacterial activity against Staphylococcus aureus ATCC 29213 assessed as reduction in microbial growth incubated for 24 hrs by microbroth dilution method; type: functional
Cell membrane [16] = assay: Induction of membrane disruption in Staphylococcus aureus ATCC BAA -1556 assessed as increase in PI positive cells at MIC incubated for 2 hrs by Propidium iodide staining based FACS cytometry analysis relative to control
Staphylococcus aureus [17] = assay: Bactericidal activity against methicillin resistant Staphylococcus aureus ATCC BAA 1556 assessed as reduction in bacterial growth at MIC measured after 16 hrs by Time kill assay; type: functional, organism-based
HEK293 [18] = assay: Cytotoxicity against HEK293 cells assessed as effect on cell viability at 10 to 200 ug/ml incubated for 24 hrs by microplate reader analysis; type: toxicity, cell-based; settings: human, hek293, 24 h, dose 10-200 µg/ml
Cell membrane [19] = assay: Induction of membrane disruption in Pseudomonas aeruginosa ATCC BAA 1744 assessed as increase in PI positive cells at MIC incubated for 2 hrs by Propidium iodide staining based FACS cytometry analysis relative to control
Pseudomonas aeruginosa [20] = assay: Bactericidal activity against Pseudomonas aeruginosa ATCC BAA 1744 assessed as decrease of bacterial growth at MIC measured after 24 hrs by Time kill assay; type: functional, organism-based
Escherichia coli [21] = assay: Bactericidal activity against Escherichia coli ATCC BAA 2452 assessed as decrease of bacterial growth at MIC measured after 15 hrs by Time kill assay; type: functional, organism-based

| SMILES | MIC (Klebsiella pneumoniae [1]) [µg/mL] | MIC (Escherichia coli [2]) [µg/mL] | MIC (Pseudomonas aeruginosa [3]) [µg/mL] | MIC (Staphylococcus aureus [4]) [µg/mL] | other results |
| --- | --- | --- | --- | --- | --- |
| CCCCCCCCCC(=O)N[C@@H](Cc1c[nH]c2ccccc12)C(=O)N[C@H](CC(N)=O)C(=O)N[C@@H](CC(=O)O)C(=O)N[C@@H]1C(=O)NCC(=O)N[C@@H](CCCN)C(=O)N[C@@H](CC(=O)O)C(=O)N[C@H](C)C(=O)N[C@@H](CC(=O)O)C(=O)NCC(=O)N[C@H](CO)C(=O)N[C@@H]([C@H](C)CC(=O)O)C(=O)N[C@@H](CC(=O)c2ccccc2N)C(=O)O[C@@H]1C | 256 | > 128 | > 128 |  |  |
| CC[C@H](C)CCCCC(=O)N[C@@H](CCN)C(=O)N[C@H](C(=O)N[C@@H](CCN)C(=O)N[C@H]1CCNC(=O)[C@H]([C@@H](C)O)NC(=O)[C@H](CCN)NC(=O)[C@H](CCN)NC(=O)[C@H](CC(C)C)NC(=O)[C@@H](Cc2ccccc2)NC(=O)[C@H](CCN)NC1=O)[C@@H](C)O (X2-[Dab]T[Dab][Dab][Dab][dF]L[Dab][Dab]T; lactam 4-C) | 1 | 2 | 1 | 64 |  |
| C[C@H](O)[C@H]1C(=O)N2C(C(=O)NCCCC[C@@H]3NC(=O)[C@H](CCCNC(=N)N)NC(=O)[C@H](CCCNC(=N)N)NC(=O)[C@H](CCCNC(=N)N)NC(=O)[C@H](CCCNC(=N)N)NC(=O)[C@H](CCCNC(=N)N)NC(=O)[C@H](Cc4c[nH]c5ccccc45)NC(=O)[C@H](Cc4c[nH]c5ccccc45)NC(=O)[C@H](Cc4c[nH]c5ccccc45)NC(=O)[C@H](Cc4c[nH]c5ccccc45)NC3=O)=C(S[C@@H]3CN[C@H](C(=O)N(C)C)C3)[C@@H](C)[C@H]12 (cyclo(K(X1)WWWWRRRRR)) | 16 | 4 | 16 | 4 | Activity (HepaRG [5]): 69%; MIC (Escherichia coli [6]): 8 µg/mL; MIC (Klebsiella pneumoniae [7]): 4 µg/mL; Activity (Cell membrane [8]): 29.6%; Activity (HEK293 [9]): Non-Toxic; Activity (HepaRG [10]): Non-Toxic; viability at 24 h [11]: 90%; HC50 at 2 h [12]: 255 µg/mL; MIC (Pseudomonas aeruginosa [13]): 16 µg/mL; Activity (Cell membrane [14]): 26.4%; MIC (Staphylococcus aureus [15]): 2 µg/mL |
| O=C(O)c1cn(C2CC2)c2cc(N3CCNCC3)c(F)cc2c1=O [CIPROFLOXACIN] |  | 64 |  |  |  |
| CCC[C@@H]1C[C@@H](C(=O)N[C@@H]([C@H]2O[C@H](SC)[C@H](O)[C@@H](O)[C@H]2O)[C@H](C)Cl)N(C)C1 [CLINDAMYCIN] | 256 |  | > 128 |  |  |
| NC[C@H]1O[C@H](O[C@H]2[C@H](O)[C@@H](O[C@H]3O[C@H](CO)[C@@H](O)[C@H](N)[C@H]3O)[C@H](N)C[C@@H]2N)[C@H](O)[C@@H](O)[C@@H]1O [KANAMYCIN] | 64 | 32 | > 128 | > 128 |  |
| C[C@H]1COc2c(N3CCN(C)CC3)c(F)cc3c(=O)c(C(=O)O)cn1c23.C[C@H]1COc2c(N3CCN(C)CC3)c(F)cc3c(=O)c(C(=O)O)cn1c23.O [LEVOFLOXACIN] | 64 | 64 |  | > 128 |  |
| C[C@@H](O)[C@H]1C(=O)N2C(C(=O)O)=C(S[C@@H]3CN[C@H](C(=O)N(C)C)C3)[C@H](C)[C@H]12 [MEROPENEM] |  | 1 | 1 | 2 | MIC (Klebsiella pneumoniae [7]): 1 µg/mL; Activity (Cell membrane [16]): 12.2%; Activity (Staphylococcus aureus [17]): Active; Activity (Cell membrane [8]): 17.2%; Activity (HEK293 [9]): Non-Toxic; Activity (HepaRG [10]): Non-Toxic; HC50 at 2 h [12]: > 500 µg/mL; MIC (Pseudomonas aeruginosa [13]): 8 µg/mL; Activity (HEK293 [18]): Non-Toxic; Activity (Cell membrane [19]): 14.7%; Activity (Pseudomonas aeruginosa [20]): Active; Activity (Cell membrane [14]): 22.1%; MIC (Staphylococcus aureus [15]): 2 µg/mL; Activity (Escherichia coli [21]): Active |
| CN(C)[C@@H]1C(O)=C(C(N)=O)C(=O)[C@@]2(O)C(O)=C3C(=O)c4c(O)cccc4[C@@](C)(O)[C@H]3C[C@@H]12 [TETRACYCLINE] | 16 | 8 | 32 | 0.25 |  |
| NC[C@H]1O[C@H](O[C@H]2[C@H](O)[C@@H](O[C@H]3O[C@H](CO)[C@@H](O)[C@H](N)[C@H]3O)[C@H](N)C[C@@H]2N)[C@H](N)C[C@@H]1O [TOBRAMYCIN] | 16 | 8 | 0.5 | 0.5 |  |
| CN[C@H](CC(C)C)C(=O)N[C@H]1C(=O)N[C@@H](CC(N)=O)C(=O)N[C@H]2C(=O)N[C@H]3C(=O)N[C@H](C(=O)N[C@H](C(=O)O)c4cc(O)cc(O)c4-c4cc3ccc4O)[C@H](O)c3ccc(c(Cl)c3)Oc3cc2cc(c3O[C@@H]2O[C@H](CO)[C@@H](O)[C@H](O)[C@H]2O[C@H]2C[C@](C)(N)[C@H](O)[C@H](C)O2)Oc2ccc(cc2Cl)[C@H]1O [VANCOMYCIN] | 256 | 256 | 256 |  |  |
